Experiments:
Type in all cases: cell-based
PLK1 = biological target: T1, PLK1 (Homo sapiens, UniProt P53350); test: Luciferase assay for PLK1 in HeLa LgBit (Plk1-HiBit KI) cell line; details: 300 nM compound, luminescence after 9 hours
T1 construct: endogenous in cells; host or cells: HeLa LgBit (Plk1-HiBit KI): HeLa stably expressing LgBit, with a CRISPR/Cas9 knock-in of HiBit at the endogenous PLK1 locus
Summary of the method: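 Luminescence, followed in real time after adding compound at 300 nM and Endurazine substrate, is reported relative to DMSO-treated wells. Cells are a HeLa LgBit line with a Plk1-HiBit knock-in, synchronized by 2 mM thymidine for 24 h, released, and cultured 18 h before treatment.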

NCI-H526 cell line = test: Cell viability assay for H526 cell (EZ-Cytox); details: Homo sapiens, NCI-H526, 120 h; H526 cells, 5 days, 3000 nM to 0.46 nM
Summary of the method: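 Read-out was EZ-Cytox colorimetric absorbance at 450 nm, taken after brief plate shaking, with IC50 derived. Before reading, H526 cells had been cultured with test compound for 5 days.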

MRC-5 cell line = test: Cell viability assay for MRC-5 cell line (EZ-Cytox); details: Homo sapiens, MRC5, 120 h; MRC-5 normal cell line, 5 days, 10000 nM to 1.52 nM; N.D. = no cytotoxicity until 10 μM; read-out: Activity: IC50 value of Exemplary Compound to MRC-5 cell line
Protocol: 4. Cell Viability Assay for MRC-5 Cell Line
(1) Culture of MRC-5 Cell Line
Passage of cultured cells was maintained within P15.
(2) Treatment of Compounds of the Present Invention
Then, it was cultured in 37° C.
(3) Cytotoxicity Experiment
CO2 incubator for 4 hours.

T1 sequence (P53350 whole entry): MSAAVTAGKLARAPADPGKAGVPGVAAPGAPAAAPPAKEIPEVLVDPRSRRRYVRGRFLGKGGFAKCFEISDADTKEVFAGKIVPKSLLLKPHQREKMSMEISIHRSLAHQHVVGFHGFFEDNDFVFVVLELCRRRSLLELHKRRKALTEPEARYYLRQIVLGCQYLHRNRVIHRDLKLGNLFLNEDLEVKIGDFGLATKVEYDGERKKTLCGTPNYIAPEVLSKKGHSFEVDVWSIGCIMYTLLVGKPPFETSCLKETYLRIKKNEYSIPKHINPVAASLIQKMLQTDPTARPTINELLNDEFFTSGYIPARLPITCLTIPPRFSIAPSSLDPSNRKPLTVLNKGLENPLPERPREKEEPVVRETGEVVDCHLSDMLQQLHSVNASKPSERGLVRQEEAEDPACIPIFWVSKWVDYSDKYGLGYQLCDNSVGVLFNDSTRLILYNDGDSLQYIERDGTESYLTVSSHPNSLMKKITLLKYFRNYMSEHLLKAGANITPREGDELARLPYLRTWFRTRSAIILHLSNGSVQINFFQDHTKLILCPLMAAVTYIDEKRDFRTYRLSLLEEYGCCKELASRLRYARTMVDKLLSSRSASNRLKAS

SMILES | Activity: ratio of the luminescense value of each Exemplary Compound treatment group to DMSO treatment group (PLK1) | IC50 (NCI-H526 cell line) [nM] | IC50 (MRC-5 cell line) [µM]
COc1cc(C(=O)NN2CCN(C3CCN(c4cccc5c4C(=O)N(C4CCC(=O)NC4=O)C5=O)CC3(F)F)CC2)ccc1Nc1ncc2c(n1)N(C(C)C)CC(F)(F)C(=O)N2C (stereo not drawn) [Compound 167, 4-((7,7-difluoro-9-isopropyl-5-methyl-6-oxo-6,7,8,9-tetrahydro-5H-pyrimido[4,5-b][1,4]diazepin-2-yl)amino)-N-(4-(1-(2-(2,6-dioxopiperidin-3-yl)-1,3-dioxoisoindolin-4-yl)-3,3-difluoropiperidin-4-yl)piperazin-1-yl)-3-methoxybenzamide] | +++ (+++: <0.3) | < 30 | > 10
COc1cc(C(=O)NN2CCC(N3CCN(c4ccc5c(c4)C(=O)N(C4CCC(=O)NC4=O)C5=O)CC3)C2)ccc1Nc1ncc2c(n1)N(C(C)C)CC(F)(F)C(=O)N2C (stereo not drawn) [Compound 154, 4-((7,7-difluoro-9-isopropyl-5-methyl-6-oxo-6,7,8,9-tetrahydro-5H-pyrimido[4,5-b][1,4]diazepin-2-yl)amino)-N-(3-(4-(2-(2,6-dioxopiperidin-3-yl)-1,3-dioxoisoindolin-5-yl)piperazin-1-yl)pyrrolidin-1-yl)-3-methoxybenzamide] | ++ (++<0.6) | < 100 | > 10
COc1cc(C(=O)N[C@H]2CC[C@H](N(C)CC3CCN(c4cccc5c4C(=O)N(C4CCC(=O)NC4=O)C5=O)CC3)CC2)ccc1Nc1ncc2c(n1)N(C(C)C)CC(F)(F)C(=O)N2C (stereo partly drawn) [Compound 152, 4-((7,7-difluoro-9-isopropyl-5-methyl-6-oxo-6,7,8,9-tetrahydro-5H-pyrimido[4,5-b][1,4]diazepin-2-yl)amino)-N-((1r,4r)-4-(((1-(2-(2,6-dioxopiperidin-3-yl)-1,3-dioxoisoindolin-4-yl)piperidin-4-yl)methyl)(methyl)amino)cyclohexyl)-3-methoxybenzamide] | ++ (++<0.6) | < 50 | 6.17
COc1cc(C(=O)NC2CCN(C(=O)CCN3CCN(c4cccc5c4C(=O)N(C4CCC(=O)NC4=O)C5=O)CC3)CC2)ccc1Nc1ncc2c(n1)N(C1CCC1)CC(F)(F)C(=O)N2C (stereo not drawn) [Compound 68, 4-((9-cyclobutyl-7,7-difluoro-5-methyl-6-oxo-6,7,8,9-tetrahydro-5H-pyrimido[4,5-b][1,4]diazepin-2-yl)amino)-N-(1-(3-(4-(2-(2,6-dioxopiperidin-3-yl)-1,3-dioxoisoindolin-4-yl)piperazin-1-yl)propanoyl)piperidin-4-yl)-3-methoxybenzamide] | +++ (+++: <0.3) | < 100 | > 10
COc1cc(C(=O)NN2CCC(CCN3CCN(c4cccc5c4C(=O)N(C4CCC(=O)NC4=O)C5=O)CC3)C2)ccc1Nc1ncc2c(n1)N(C1CCCC1)CC(F)(F)C(=O)N2C (stereo not drawn) [Compound 151, 4-((9-cyclopentyl-7,7-difluoro-5-methyl-6-oxo-6,7,8,9-tetrahydro-5H-pyrimido[4,5-b][1,4]diazepin-2-yl)amino)-N-(3-(2-(4-(2-(2,6-dioxopiperidin-3-yl)-1,3-dioxoisoindolin-4-yl)piperazin-1-yl)ethyl)pyrrolidin-1-yl)-3-methoxybenzamide] | ++ (++<0.6) | < 50 | > 10

Further lines, with some results ahead:

Activity: ratio of the luminescense value of each Exemplary Compound treatment group to DMSO treatment group (PLK1) | SMILES | IC50 (NCI-H526 cell line) [nM] | IC50 (MRC-5 cell line) [µM]
++ (++<0.6) | COc1cc(C(=O)NC2CCN(C[C@H]3CCN(c4ccc5c(c4)C(=O)N(C4CCC(=O)NC4=O)C5=O)C3)CC2)ccc1Nc1ncc2c(n1)N(C1CCCC1)CC(F)(F)C(=O)N2C (stereo partly drawn) [Compound 49, 4-((9-cyclopentyl-7,7-difluoro-5-methyl-6-oxo-6,7,8,9-tetrahydro-5H-pyrimido[4,5-b][1,4]diazepin-2-yl)amino)-N-(1-(((3R)-1-(2-(2,6-dioxopiperidin-3-yl)-1,3-dioxoisoindolin-5-yl)pyrrolidin-3-yl)methyl)piperidin-4-yl)-3-methoxybenzamide] | < 50 | > 10
++ (++<0.6) | COc1cc(C(=O)NC2CC3(CCN(CC4CCN(c5ccc6c(c5)C(=O)N(C5CCC(=O)NC5=O)C6=O)CC4)CC3)C2)ccc1Nc1ncc2c(n1)N(C1CCCC1)CC(F)(F)C(=O)N2C (stereo not drawn) [Compound 137, 4-((9-cyclopentyl-7,7-difluoro-5-methyl-6-oxo-6,7,8,9-tetrahydro-5H-pyrimido[4,5-b][1,4]diazepin-2-yl)amino)-N-(7-((1-(2-(2,6-dioxopiperidin-3-yl)-1,3-dioxoisoindolin-5-yl)piperidin-4-yl)methyl)-7-azaspiro[3.5]nonan-2-yl)-3-methoxybenzamide] | < 30 | 16.9
++ (++<0.6) | COc1cc(C(=O)NC2CN(CC3CCN(c4ccc5c(c4)C(=O)N(C4CCC(=O)NC4=O)C5=O)CC3)C2)ccc1Nc1ncc2c(n1)N(C1CCCC1)CC(F)(F)C(=O)N2C (stereo not drawn) [Compound 139, 4-((9-cyclopentyl-7,7-difluoro-5-methyl-6-oxo-6,7,8,9-tetrahydro-5H-pyrimido[4,5-b][1,4]diazepin-2-yl)amino)-N-(1-((1-(2-(2,6-dioxopiperidin-3-yl)-1,3-dioxoisoindolin-5-yl)piperidin-4-yl)methyl)azetidin-3-yl)-3-methoxybenzamide] | < 50 | > 10
++ (++<0.6) | COc1cc(C(=O)NC2CC(N(C)C3CCN(c4cccc5c4C(=O)N(C4CCC(=O)NC4=O)C5=O)CC3)C2)ccc1Nc1ncc2c(n1)N(C(C)C)CC(F)(F)C(=O)N2C (stereo not drawn) [Compound 164, 4-((7,7-difluoro-9-isopropyl-5-methyl-6-oxo-6,7,8,9-tetrahydro-5H-pyrimido[4,5-b][1,4]diazepin-2-yl)amino)-N-(3-((1-(2-(2,6-dioxopiperidin-3-yl)-1,3-dioxoisoindolin-4-yl)piperidin-4-yl)(methyl)amino)cyclobutyl)-3-methoxybenzamide] | < 30 | > 10
++ (++<0.6) | COc1cc(C(=O)N[C@H]2CC[C@@H](N(C)CCN3CCN(c4cccc5c4C(=O)N(C4CCC(=O)NC4=O)C5=O)CC3)CC2)ccc1Nc1ncc2c(n1)N(C1CCCC1)CC(F)(F)C(=O)N2C (stereo partly drawn) [Compound 128, 4-((9-cyclopentyl-7,7-difluoro-5-methyl-6-oxo-6,7,8,9-tetrahydro-5H-pyrimido[4,5-b][1,4]diazepin-2-yl)amino)-N-((1s,4s)-4-((2-(4-(2-(2,6-dioxopiperidin-3-yl)-1,3-dioxoisoindolin-4-yl)piperazin-1-yl)ethyl)(methyl)amino)cyclohexyl)-3-methoxybenzamide] | < 50 | 18.8

Reference: patent US20250114460A1, “NOVEL PLK1 DEGRADATION INDUCING COMPOUND” (UPPTHERA, INC., priority 2021, published 2025)
